From US20090312288A1 (TAKEDA PHARMACEUTICAL COMPANY LIMITED, priority 2008, published 2009) come the findings set out here.

SMILES strings stand for the structures. Bounds are passed on as bounds.

By IC50 is commonly meant the point on the concentration scale where inhibition reaches its midpoint.

For this experiment, the target named is Aurora B/INCENP (Homo sapiens, UniProt Q96GD4). The experiment in a line: Determination of inhibition of AIK: Aurora B/INCENP direct fluorescence polarization (IMAP) assay. The format is biochemical. Conditions: 10 uM ATP, 0.8 nM Aurora B/INCENP; values given as bins; read-out: IC50 of Exemplified Compounds Against AIK B. (Polarisation of emitted light reports the rotation of a fluorescent probe.)
Chain of Aurora B/INCENP (Q96GD4 whole entry): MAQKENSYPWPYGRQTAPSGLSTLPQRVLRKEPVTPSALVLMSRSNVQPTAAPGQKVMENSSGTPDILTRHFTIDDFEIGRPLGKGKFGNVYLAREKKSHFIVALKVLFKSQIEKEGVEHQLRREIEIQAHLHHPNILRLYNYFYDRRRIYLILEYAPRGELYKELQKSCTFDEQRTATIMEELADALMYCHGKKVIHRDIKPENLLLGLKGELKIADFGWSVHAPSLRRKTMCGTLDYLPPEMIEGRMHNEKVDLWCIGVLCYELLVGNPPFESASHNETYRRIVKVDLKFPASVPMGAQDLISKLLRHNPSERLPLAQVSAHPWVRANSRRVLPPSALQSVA
Chain of Aurora B/INCENP (Q9NQS7 whole entry partner): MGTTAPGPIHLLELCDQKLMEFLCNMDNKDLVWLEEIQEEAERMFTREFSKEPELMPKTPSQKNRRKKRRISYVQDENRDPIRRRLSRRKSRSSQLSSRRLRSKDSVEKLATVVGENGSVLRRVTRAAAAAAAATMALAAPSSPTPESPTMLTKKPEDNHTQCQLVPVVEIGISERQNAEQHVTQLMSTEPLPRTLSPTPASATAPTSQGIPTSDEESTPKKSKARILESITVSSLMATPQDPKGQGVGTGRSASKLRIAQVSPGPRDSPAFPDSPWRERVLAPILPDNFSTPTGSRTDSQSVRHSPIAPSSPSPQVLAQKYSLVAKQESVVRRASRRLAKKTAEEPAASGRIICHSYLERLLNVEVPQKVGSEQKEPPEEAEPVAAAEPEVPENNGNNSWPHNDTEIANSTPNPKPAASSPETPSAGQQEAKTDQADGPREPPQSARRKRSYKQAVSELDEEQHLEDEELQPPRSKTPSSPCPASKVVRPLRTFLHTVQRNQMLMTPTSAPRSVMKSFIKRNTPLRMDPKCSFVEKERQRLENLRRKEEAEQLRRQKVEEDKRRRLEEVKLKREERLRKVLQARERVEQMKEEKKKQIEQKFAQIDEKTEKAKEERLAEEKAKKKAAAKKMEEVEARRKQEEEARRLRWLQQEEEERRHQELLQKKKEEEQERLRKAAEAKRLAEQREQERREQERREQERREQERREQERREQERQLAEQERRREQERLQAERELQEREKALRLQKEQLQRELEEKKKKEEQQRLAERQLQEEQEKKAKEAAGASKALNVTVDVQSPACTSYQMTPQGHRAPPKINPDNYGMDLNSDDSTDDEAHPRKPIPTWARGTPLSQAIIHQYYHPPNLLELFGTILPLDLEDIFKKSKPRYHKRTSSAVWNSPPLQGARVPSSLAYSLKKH
For the molecule `Cc1cnc2[nH]c3c(OCC4CCN(C)CC4)ccc(-c4cccc(NC(=O)C5CC5)c4)c3c2c1` [Compound 182, N-(3-(3-methyl-8-((1-methylpiperidin-4-yl)methoxy)-9H-pyrido[2,3-b]indol-5-yl)phenyl)cyclopropanecarboxamide], the concentration for half-maximal inhibition (IC50) fell in the range of 5.6 to 8.5 nM.

Regarding `CCSc1cccc(-c2ccc(OCC3CCN(C)CC3)c3[nH]c4ncc(C)cc4c23)c1` [Compound 183], the IC50 is greater than 13 nM.

As for `CCOc1cccc(-c2ccc(OCC3CCN(C)CC3)c3[nH]c4ncc(C)cc4c23)c1` [Compound 184, 5-(3-ethoxyphenyl)-3-methyl-8-((1-methylpiperidin-4-yl)methoxy)-9H-pyrido[2,3-b]indole], the IC50 is greater than 13 nM.

With `CCS(=O)(=O)c1cccc(-c2ccc(OCC3CCNCC3)c3[nH]c4ncc(C)cc4c23)c1` [Compound 185, 5-(3-(ethylsulfonyl)phenyl)-3-methyl-8-(piperidin-4-ylmethoxy)-9H-pyrido[2,3-b]indole], the IC50 was in the range of 4 to 5.5 nM. For the molecule `CCS(=O)(=O)c1cccc(-c2ccc(OC[C@H]3CCN(C)C3)c3[nH]c4ncc(C)cc4c23)c1` [Compound 186, (S)-5-(3-(ethylsulfonyl)phenyl)-3-methyl-8-((1-methylpyrrolidin-3-yl)methoxy)-9H-pyrido[2,3-b]indole], the half-inhibitory concentration (IC50) is greater than 13 nM. With `CCS(=O)(=O)c1cccc(-c2ccc(OC[C@@H]3CCN(C)C3)c3[nH]c4ncc(C)cc4c23)c1` [Compound 187, (R)-5-(3-(ethylsulfonyl)phenyl)-3-methyl-8-((1-methylpyrrolidin-3-yl)methoxy)-9H-pyrido[2,3-b]indole], the IC50 is greater than 13 nM. In the case of `CCS(=O)(=O)c1cccc(-c2ccc(OC[C@@H]3CCCN3C)c3[nH]c4ncc(C)cc4c23)c1` [Compound 188, (S)-5-(3-(ethylsulfonyl)phenyl)-3-methyl-8-((1-methylpyrrolidin-2-yl)methoxy)-9H-pyrido[2,3-b]indole] it was 8.6 to 13 nM.

Take `CCS(=O)(=O)c1cccc(-c2ccc(OC[C@H]3CCNC3)c3[nH]c4ncc(C)cc4c23)c1` [Compound 189, (S)-5-(3-(ethylsulfonyl)phenyl)-3-methyl-8-(pyrrolidin-3-ylmethoxy)-9H-pyrido[2,3-b]indole]: the half-maximal inhibitory concentration (IC50) was in the range of 8.6 to 13 nM. In the case of `CCS(=O)(=O)c1cccc(-c2ccc(OC[C@@H]3CCNC3)c3[nH]c4ncc(C)cc4c23)c1` [Compound 190, (R)-5-(3-(ethylsulfonyl)phenyl)-3-methyl-8-(pyrrolidin-3-ylmethoxy)-9H-pyrido[2,3-b]indole] it was greater than 13 nM. For `Cc1cnc2[nH]c3c(OCCCN(C)C)ccc(-c4cccc(S(=O)(=O)C5CC5)c4)c3c2c1` [Compound 194, 3-(5-(3-(cyclopropylsulfonyl)phenyl)-3-methyl-9H-pyrido[2,3-b]indol-8-yloxy)-N,N-dimethylpropan-1-amine], the concentration for half-maximal inhibition (IC50) lay within 4 to 5.5 nM. In the case of `Cc1cnc2[nH]c3c(OCCCN(C)C)ccc(-c4cccc(NC(=O)C5CC5)c4)c3c2c1` [Compound 195, N-(3-(8-(3-(dimethylamino)propoxy)-3-methyl-9H-pyrido[2,3-b]indol-5-yl)phenyl)cyclopropanecarboxamide] it was greater than 13 nM; in that of `CCS(=O)(=O)c1cccc(-c2ccc(OCC3CCN(C)CC3)c3[nH]c4ncc(Cl)cc4c23)c1` [Compound 200, 3-chloro-5-(3-(ethylsulfonyl)phenyl)-8-((1-methylpiperidin-4-yl)methoxy)-9H-pyrido[2,3-b]indole], 5.6 to 8.5 nM; in that of `CCS(=O)(=O)c1cccc(-c2ccc(OCC3CCNCC3)c3[nH]c4ncc(Cl)cc4c23)c1` [Compound 201, 3-chloro-5-(3-(ethylsulfonyl)phenyl)-8-(piperidin-4-ylmethoxy)-9H-pyrido[2,3-b]indole], less than 4 nM. In the case of `CCS(=O)(=O)c1cccc(-c2ccc(OCC3CCN(C)CC3)c3[nH]c4ncc(C(F)(F)F)cc4c23)c1` [Compound 202, 5-(3-(ethylsulfonyl)phenyl)-8-((1-methylpiperidin-4-yl)methoxy)-3-(trifluoromethyl)-9H-pyrido[2,3-b]indole] it was 8.6 to 13 nM; in that of `CCS(=O)(=O)c1cccc(-c2ccc(OCC3CCN(C)CC3)c3[nH]c4ncc(C#N)cc4c23)c1` [Compound 203, 5-(3-(ethylsulfonyl)phenyl)-8-((1-methylpiperidin-4-yl)methoxy)-9H-pyrido[2,3-b]indole-3-carbonitrile], 5.6 to 8.5 nM; in that of `CCS(=O)(=O)c1cccc(-c2cc(F)c(OCCN(C)C)c3[nH]c4ncc(C)cc4c23)c1` [Compound 204, 2-(5-(3-(ethylsulfonyl)phenyl)-7-fluoro-3-methyl-9H-pyrido[2,3-b]indol-8-yloxy)-N,N-dimethylethanamine], 8.6 to 13 nM. In the case of `CCS(=O)(=O)c1cccc(-c2cc(F)c(OCCCN(C)C)c3[nH]c4ncc(Cl)cc4c23)c1` [Compound 205, 3-(3-chloro-5-(3-(ethylsulfonyl)phenyl)-7-fluoro-9H-pyrido[2,3-b]indol-8-yloxy)-N,N-dimethylpropan-1-amine] it was less than 4 nM.

With `CCS(=O)(=O)c1cccc(-c2ccc(OCCCN(C)C)c3[nH]c4ncc(C)cc4c23)c1` [Compound 206, 3-(5-(3-(ethylsulfonyl)phenyl)-3-methyl-9H-pyrido[2,3-b]indol-8-yloxy)-N,N-dimethylpropan-1-amine], the half-inhibitory concentration (IC50) fell in the range of 4 to 5.5 nM. In the case of `CCS(=O)(=O)c1cccc(-c2ccc(OCCN(C)C)c3[nH]c4ncc(C)cc4c23)c1` [Compound 207, 2-(5-(3-(ethylsulfonyl)phenyl)-3-methyl-9H-pyrido[2,3-b]indol-8-yloxy)-N,N-dimethylethanamine] it was greater than 13 nM; in that of `CCS(=O)(=O)c1cccc(-c2ccc(OCCOC)c3[nH]c4ncc(C)cc4c23)c1` [Compound 208, 5-(3-(ethylsulfonyl)phenyl)-8-(2-methoxyethoxy)-3-methyl-9H-pyrido[2,3-b]indole], 8.6 to 13 nM; in that of `CCS(=O)(=O)c1cccc(-c2ccc(OCC#N)c3[nH]c4ncc(C)cc4c23)c1` [Compound 209, 2-(5-(3-(ethylsulfonyl)phenyl)-3-methyl-9H-pyrido[2,3-b]indol-8-yloxy)acetonitrile], less than 4 nM. Regarding `CCS(=O)(=O)c1cccc(-c2ccc(OCCC#N)c3[nH]c4ncc(C)cc4c23)c1` [Compound 210, 3-(5-(3-(ethylsulfonyl)phenyl)-3-methyl-9H-pyrido[2,3-b]indol-8-yloxy)propanenitrile], the half-maximal inhibitory concentration (IC50) was greater than 13 nM. In the case of `CCS(=O)(=O)c1cccc(-c2ccc(O[C@H](C)CO)c3[nH]c4ncc(C)cc4c23)c1` [Compound 212, (R)-2-(5-(3-(ethylsulfonyl)phenyl)-3-methyl-9H-pyrido[2,3-b]indol-8-yloxy)propan-1-ol] it was 5.6 to 8.5 nM; in that of `CCS(=O)(=O)c1cccc(-c2ccc(O[C@@H](C)CO)c3[nH]c4ncc(C)cc4c23)c1` [Compound 213, (S)-2-(5-(3-(ethylsulfonyl)phenyl)-3-methyl-9H-pyrido[2,3-b]indol-8-yloxy)propan-1-ol], 4 to 5.5 nM; in that of `CCS(=O)(=O)c1cccc(-c2ccc(OCCO)c3[nH]c4ncc(C)cc4c23)c1` [Compound 216, 2-(5-(3-(ethylsulfonyl)phenyl)-3-methyl-9H-pyrido[2,3-b]indol-8-yloxy)ethanol], 5.6 to 8.5 nM. As for `CCS(=O)(=O)c1cccc(-c2ccc(OCCCO)c3[nH]c4ncc(C)cc4c23)c1` [Compound 217, 3-(5-(3-(ethylsulfonyl)phenyl)-3-methyl-9H-pyrido[2,3-b]indol-8-yloxy)propan-1-ol], the concentration for half-maximal inhibition (IC50) is 4 to 5.5 nM. In the case of `CCS(=O)(=O)c1cccc(-c2ccc(OC)c3[nH]c4ncc(Cl)cc4c23)c1` [Compound 218] it was less than 4 nM; in that of `CCS(=O)(=O)c1cccc(-c2ccc(OCCCN(C)C)c3[nH]c4ncc(Cl)cc4c23)c1` [Compound 220, 3-(3-chloro-5-(3-(ethylsulfonyl)phenyl)-9H-pyrido[2,3-b]indol-8-yloxy)-N,N-dimethylpropan-1-amine], 4 to 5.5 nM.

In the case of `CCN(CC)CCOc1ccc(-c2cccc(S(=O)(=O)CC)c2)c2c1[nH]c1ncc(Cl)cc12` [Compound 221, 2-(3-chloro-5-(3-(ethylsulfonyl)phenyl)-9H-pyrido[2,3-b]indol-8-yloxy)-N,N-diethylethanamine], the IC50 lay in the range of 5.6 to 8.5 nM.

Consider `CCS(=O)(=O)c1cccc(-c2ccc(OCCN(C)C)c3[nH]c4ncc(Cl)cc4c23)c1` [Compound 222, 2-(3-chloro-5-(3-(ethylsulfonyl)phenyl)-9H-pyrido[2,3-b]indol-8-yloxy)-N,N-dimethylethanamine], for which the IC50 lay within 4 to 5.5 nM. In the case of `CCS(=O)(=O)c1cccc(-c2ccc(OCCN3CCCC3)c3[nH]c4ncc(Cl)cc4c23)c1` [Compound 223, 3-chloro-5-(3-(ethylsulfonyl)phenyl)-8-(2-(pyrrolidin-1-yl)ethoxy)-9H-pyrido[2,3-b]indole] it was 5.6 to 8.5 nM.

Regarding `CCS(=O)(=O)c1cccc(-c2ccc(OCCN3CCN(C)CC3)c3[nH]c4ncc(Cl)cc4c23)c1` [Compound 224, 3-chloro-5-(3-(ethylsulfonyl)phenyl)-8-(2-(4-methylpiperazin-1-yl)ethoxy)-9H-pyrido[2,3-b]indole], the 50% inhibitory concentration (IC50) lay within 5.6 to 8.5 nM.

Turning to `CCS(=O)(=O)c1cccc(-c2ccc(OCCO)c3[nH]c4ncc(Cl)cc4c23)c1` [Compound 225, 2-(3-chloro-5-(3-(ethylsulfonyl)phenyl)-9H-pyrido[2,3-b]indol-8-yloxy)ethanol], the IC50 lay within 4 to 5.5 nM. With `CCS(=O)(=O)c1cccc(-c2ccc(OCCOC(=O)[C@H](C)N)c3[nH]c4ncc(C)cc4c23)c1` [Compound 226, (S)-2-(5-(3-(ethylsulfonyl)phenyl)-3-methyl-9H-pyrido[2,3-b]indol-8-yloxy)ethyl 2-aminopropanoate], the IC50 fell in the range of 5.6 to 8.5 nM. In the case of `CCS(=O)(=O)c1cccc(-c2ccc(OCCCOC(=O)[C@H](C)N)c3[nH]c4ncc(C)cc4c23)c1` [Compound 227, (S)-3-(5-(3-(ethylsulfonyl)phenyl)-3-methyl-9H-pyrido[2,3-b]indol-8-yloxy)propyl 2-aminopropanoate] it was 5.6 to 8.5 nM.
